Test results taken from ChEMBL document CHEMBL2346657, “Synthesis of novel 2-amino-4-(5'-substituted 2'-phenyl-1H-indol-3'-yl)-6-aryl-4H-pyran-3-carbonitrile derivatives as antimicrobial and antioxidant agents” (2013).
The source made the active and inactive calls. Unless noted, the calls are words filed in the database; no cut-off is given here.

Tests used:
Type in all cases: functional
[1] = tested on: Pseudomonas aeruginosa; experiment: Antimicrobial activity against Pseudomonas aeruginosa MTCC 1688 at 1000 ug/ml after 24 hrs by cup plate method; details: MTCC 1688, 24 h, read-out: IZ
[2] = tested on: Aspergillus niger; experiment: Antimicrobial activity against Aspergillus niger MTCC 281 at 750 ug/ml after 72 hrs by cup plate method; details: MTCC 281, 72 h, read-out: IZ
[3] = Antioxidant activity assessed as ferric ion reducing activity at 25 to 75 ug/ml by FRAP assay
[4] = tested on: Aspergillus oryzae; experiment: Antimicrobial activity against Aspergillus oryzae MTCC 3567 at 750 ug/ml after 72 hrs by cup plate method; details: MTCC 3567, 72 h, read-out: IZ
[5] = tested on: Aspergillus niger; experiment: Antimicrobial activity against Aspergillus niger MTCC 281 at 1000 ug/ml after 72 hrs by cup plate method; details: MTCC 281, 72 h, read-out: IZ
[6] = tested on: Aspergillus terreus; experiment: Antimicrobial activity against Aspergillus terreus MTCC 1782 at 1000 ug/ml after 72 hrs by cup plate method; details: MTCC 1782, 72 h, read-out: IZ
[7] = tested on: Aspergillus terreus; experiment: Antimicrobial activity against Aspergillus terreus MTCC 1782 at 750 ug/ml after 72 hrs by cup plate method; details: MTCC 1782, 72 h, read-out: IZ
[8] = tested on: Aspergillus oryzae; experiment: Antimicrobial activity against Aspergillus oryzae MTCC 3567 at 500 ug/ml after 72 hrs by cup plate method; details: MTCC 3567, 72 h, read-out: IZ
[9] = tested on: Aspergillus terreus; experiment: Antimicrobial activity against Aspergillus terreus MTCC 1782 at 500 ug/ml after 72 hrs by cup plate method; details: MTCC 1782, 72 h, read-out: IZ
[10] = tested on: Escherichia coli; experiment: Antimicrobial activity against Escherichia coli MTCC 723 at 500 ug/ml after 24 hrs by cup plate method; details: MTCC 723, 24 h, read-out: IZ
[11] = tested on: Pseudomonas aeruginosa; experiment: Antimicrobial activity against Pseudomonas aeruginosa MTCC 1688 at 500 ug/ml after 24 hrs by cup plate method; details: MTCC 1688, 24 h, read-out: IZ
[12] = tested on: Pseudomonas aeruginosa; experiment: Antimicrobial activity against Pseudomonas aeruginosa MTCC 1688 at 750 ug/ml after 24 hrs by cup plate method; details: MTCC 1688, 24 h, read-out: IZ
[13] = tested on: Klebsiella pneumoniae; experiment: Antimicrobial activity against Klebsiella pneumoniae NCTC 13368 at 750 ug/ml after 24 hrs by cup plate method; details: NCTC 13368, 24 h, read-out: IZ
[14] = tested on: Klebsiella pneumoniae; experiment: Antimicrobial activity against Klebsiella pneumoniae NCTC 13368 at 1000 ug/ml after 24 hrs by cup plate method; details: NCTC 13368, 24 h, read-out: IZ
[15] = tested on: Escherichia coli; experiment: Antimicrobial activity against Escherichia coli MTCC 723 at 750 ug/ml after 24 hrs by cup plate method; details: MTCC 723, 24 h, read-out: IZ
[16] = tested on: Staphylococcus aureus; experiment: Antimicrobial activity against Staphylococcus aureus ATCC 29513 at 1000 ug/ml after 24 hrs by cup plate method; details: ATCC 29513, 24 h, read-out: IZ
[17] = tested on: Escherichia coli; experiment: Antimicrobial activity against Escherichia coli MTCC 723 at 1000 ug/ml after 24 hrs by cup plate method; details: MTCC 723, 24 h, read-out: IZ
[18] = tested on: Staphylococcus aureus; experiment: Antimicrobial activity against Staphylococcus aureus ATCC 29513 at 750 ug/ml after 24 hrs by cup plate method; details: ATCC 29513, 24 h, read-out: IZ
[19] = tested on: Aspergillus flavus; experiment: Antimicrobial activity against Aspergillus flavus MTCC 1973 at 500 ug/ml after 72 hrs by cup plate method; details: MTCC 1973, 72 h, read-out: IZ
[20] = Antioxidant activity assessed as metal chelating activity by measuring inhibition of ferrozine-Fe2+ complex formation at 25 to 100 ug/ml
[21] = tested on: Aspergillus flavus; experiment: Antimicrobial activity against Aspergillus flavus MTCC 1973 at 750 ug/ml after 72 hrs by cup plate method; details: MTCC 1973, 72 h, read-out: IZ
[22] = tested on: Aspergillus oryzae; experiment: Antimicrobial activity against Aspergillus oryzae MTCC 3567 at 1000 ug/ml after 72 hrs by cup plate method; details: MTCC 3567, 72 h, read-out: IZ
[23] = tested on: Aspergillus niger; experiment: Antimicrobial activity against Aspergillus niger MTCC 281 at 500 ug/ml after 72 hrs by cup plate method; details: MTCC 281, 72 h, read-out: IZ
[24] = tested on: Aspergillus flavus; experiment: Antimicrobial activity against Aspergillus flavus MTCC 1973 at 1000 ug/ml after 72 hrs by cup plate method; details: MTCC 1973, 72 h, read-out: IZ
[25] = tested on: Staphylococcus aureus; experiment: Antimicrobial activity against Staphylococcus aureus ATCC 29513 at 500 ug/ml after 24 hrs by cup plate method; details: ATCC 29513, 24 h, read-out: IZ
[26] = tested on: Klebsiella pneumoniae; experiment: Antimicrobial activity against Klebsiella pneumoniae NCTC 13368 at 500 ug/ml after 24 hrs by cup plate method; details: NCTC 13368, 24 h, read-out: IZ
[27] = Antioxidant activity assessed as ferric ion reducing activity at 25 to 100 ug/ml by FRAP assay
[28] = Antioxidant activity assessed as ferric ion reducing activity at 100 ug/ml by FRAP assay
[29] = Antioxidant activity assessed as ferric ion reducing activity at 75 ug/ml by FRAP assay

Cc1ccc2[nH]c(-c3ccccc3)c(C3C=C(c4ccc(Cl)cc4)Oc4[nH]c(=S)nc(N)c43)c2c1 (stereo not given)
zone of inhibition at 1000 µg/mL [1]: 9 mm | zone of inhibition at 750 µg/mL [2]: 5 mm | Activity [3]: Active | zone of inhibition at 750 µg/mL [4]: 8 mm | zone of inhibition at 1000 µg/mL [5]: 3 mm | zone of inhibition at 1000 µg/mL [6]: 10 mm | zone of inhibition at 750 µg/mL [7]: 3 mm | zone of inhibition at 500 µg/mL [8]: 9 mm | zone of inhibition at 500 µg/mL [9]: 3 mm | zone of inhibition at 500 µg/mL [10]: 4 mm | zone of inhibition at 500 µg/mL [11]: 9 mm | zone of inhibition at 750 µg/mL [12]: 9 mm | zone of inhibition at 750 µg/mL [13]: 3 mm | zone of inhibition at 1000 µg/mL [14]: 5 mm | zone of inhibition at 750 µg/mL [15]: 3 mm | zone of inhibition at 1000 µg/mL [16]: 11 mm | zone of inhibition at 1000 µg/mL [17]: 3 mm | zone of inhibition at 750 µg/mL [18]: 9 mm | zone of inhibition at 500 µg/mL [19]: 3 mm | Activity [20]: Active | zone of inhibition at 750 µg/mL [21]: 3 mm | zone of inhibition at 1000 µg/mL [22]: 9 mm | zone of inhibition at 500 µg/mL [23]: 5 mm | zone of inhibition at 1000 µg/mL [24]: 4 mm | zone of inhibition at 500 µg/mL [25]: 9 mm | zone of inhibition at 500 µg/mL [26]: 5 mm

Cc1ccc(C2=CC(c3c(-c4ccccc4)[nH]c4ccc(Cl)cc34)c3c(nc[nH]c3=O)O2)cc1 (stereo not given)
zone of inhibition at 1000 µg/mL [1]: 8 mm | zone of inhibition at 750 µg/mL [2]: 8 mm | Activity [3]: Active | zone of inhibition at 750 µg/mL [4]: 13 mm | zone of inhibition at 1000 µg/mL [5]: 8 mm | zone of inhibition at 1000 µg/mL [6]: 8 mm | zone of inhibition at 750 µg/mL [7]: 8 mm | zone of inhibition at 500 µg/mL [8]: 12 mm | zone of inhibition at 500 µg/mL [9]: 8 mm | zone of inhibition at 500 µg/mL [10]: 3 mm | zone of inhibition at 500 µg/mL [11]: 8 mm | zone of inhibition at 750 µg/mL [12]: 8 mm | zone of inhibition at 750 µg/mL [13]: 9 mm | zone of inhibition at 1000 µg/mL [14]: 9 mm | zone of inhibition at 750 µg/mL [15]: 3 mm | zone of inhibition at 1000 µg/mL [16]: 3 mm | zone of inhibition at 1000 µg/mL [17]: 3 mm | zone of inhibition at 750 µg/mL [18]: 3 mm | zone of inhibition at 500 µg/mL [19]: 6 mm | Activity [20]: Active | Activity [27]: Active | zone of inhibition at 750 µg/mL [21]: 6 mm | zone of inhibition at 1000 µg/mL [22]: 13 mm | zone of inhibition at 500 µg/mL [23]: 8 mm | zone of inhibition at 1000 µg/mL [24]: 6 mm | zone of inhibition at 500 µg/mL [25]: 5 mm | zone of inhibition at 500 µg/mL [26]: 9 mm

Cc1ccc2[nH]c(-c3ccccc3)c(C3C=C(c4ccccc4)Oc4nc[nH]c(=O)c43)c2c1 (stereo not given)
zone of inhibition at 1000 µg/mL [1]: 5 mm | zone of inhibition at 750 µg/mL [2]: 4 mm | zone of inhibition at 750 µg/mL [4]: 9 mm | zone of inhibition at 1000 µg/mL [5]: 4 mm | zone of inhibition at 1000 µg/mL [6]: 3 mm | zone of inhibition at 750 µg/mL [7]: 3 mm | zone of inhibition at 500 µg/mL [8]: 9 mm | zone of inhibition at 500 µg/mL [9]: 4 mm | zone of inhibition at 500 µg/mL [10]: 8 mm | zone of inhibition at 500 µg/mL [11]: 5 mm | zone of inhibition at 750 µg/mL [12]: 5 mm | zone of inhibition at 750 µg/mL [13]: 5 mm | zone of inhibition at 1000 µg/mL [14]: 5 mm | zone of inhibition at 750 µg/mL [15]: 6 mm | zone of inhibition at 1000 µg/mL [16]: 10 mm | zone of inhibition at 1000 µg/mL [17]: 6 mm | zone of inhibition at 750 µg/mL [18]: 10 mm | zone of inhibition at 500 µg/mL [19]: 8 mm | Activity [20]: Active | zone of inhibition at 750 µg/mL [21]: 8 mm | Activity [28]: Active | zone of inhibition at 1000 µg/mL [22]: 9 mm | zone of inhibition at 500 µg/mL [23]: 5 mm | zone of inhibition at 1000 µg/mL [24]: 8 mm | zone of inhibition at 500 µg/mL [25]: 11 mm | zone of inhibition at 500 µg/mL [26]: 5 mm

Nc1n[nH]c2c1C(c1c(-c3ccccc3)[nH]c3ccccc13)C=C(c1ccc(Cl)cc1)O2 (stereo not given)
zone of inhibition at 1000 µg/mL [1]: 10 mm | zone of inhibition at 750 µg/mL [2]: 5 mm | zone of inhibition at 750 µg/mL [4]: 12 mm | zone of inhibition at 1000 µg/mL [5]: 3 mm | zone of inhibition at 1000 µg/mL [6]: 11 mm | zone of inhibition at 750 µg/mL [7]: 6 mm | Activity [29]: Active | zone of inhibition at 500 µg/mL [8]: 12 mm | zone of inhibition at 500 µg/mL [9]: 8 mm | zone of inhibition at 500 µg/mL [10]: 13 mm | zone of inhibition at 500 µg/mL [11]: 10 mm | zone of inhibition at 750 µg/mL [12]: 10 mm | zone of inhibition at 750 µg/mL [13]: 5 mm | zone of inhibition at 1000 µg/mL [14]: 5 mm | zone of inhibition at 750 µg/mL [15]: 13 mm | zone of inhibition at 1000 µg/mL [16]: 3 mm | zone of inhibition at 1000 µg/mL [17]: 14 mm | zone of inhibition at 750 µg/mL [18]: 4 mm | zone of inhibition at 500 µg/mL [19]: 9 mm | Activity [20]: Active | zone of inhibition at 750 µg/mL [21]: 9 mm | zone of inhibition at 1000 µg/mL [22]: 13 mm | zone of inhibition at 500 µg/mL [23]: 7 mm | zone of inhibition at 1000 µg/mL [24]: 9 mm | zone of inhibition at 500 µg/mL [25]: 5 mm | zone of inhibition at 500 µg/mL [26]: 5 mm
